Data taken from ChEMBL document CHEMBL5154642, “Development of [18F]MIPS15692, a radiotracer with in vitro proof-of-concept for the imaging of MER tyrosine kinase (MERTK) in neuroinflammatory disease” (Eur J Med Chem, 2021).

Tests used:
[1] = molecular target: T1, Tyrosine-protein kinase Mer (Mus musculus) (UniProt Q60805); assay: Binding affinity to MERTK in cuprizone-challenged C57BL/6 mouse brain CC/HC region assessed as maximum binding at 18.1 nM by autoradiography; assay type: tissue-based; settings: tested as the 18F-labelled form
T1 sequence (whole entry): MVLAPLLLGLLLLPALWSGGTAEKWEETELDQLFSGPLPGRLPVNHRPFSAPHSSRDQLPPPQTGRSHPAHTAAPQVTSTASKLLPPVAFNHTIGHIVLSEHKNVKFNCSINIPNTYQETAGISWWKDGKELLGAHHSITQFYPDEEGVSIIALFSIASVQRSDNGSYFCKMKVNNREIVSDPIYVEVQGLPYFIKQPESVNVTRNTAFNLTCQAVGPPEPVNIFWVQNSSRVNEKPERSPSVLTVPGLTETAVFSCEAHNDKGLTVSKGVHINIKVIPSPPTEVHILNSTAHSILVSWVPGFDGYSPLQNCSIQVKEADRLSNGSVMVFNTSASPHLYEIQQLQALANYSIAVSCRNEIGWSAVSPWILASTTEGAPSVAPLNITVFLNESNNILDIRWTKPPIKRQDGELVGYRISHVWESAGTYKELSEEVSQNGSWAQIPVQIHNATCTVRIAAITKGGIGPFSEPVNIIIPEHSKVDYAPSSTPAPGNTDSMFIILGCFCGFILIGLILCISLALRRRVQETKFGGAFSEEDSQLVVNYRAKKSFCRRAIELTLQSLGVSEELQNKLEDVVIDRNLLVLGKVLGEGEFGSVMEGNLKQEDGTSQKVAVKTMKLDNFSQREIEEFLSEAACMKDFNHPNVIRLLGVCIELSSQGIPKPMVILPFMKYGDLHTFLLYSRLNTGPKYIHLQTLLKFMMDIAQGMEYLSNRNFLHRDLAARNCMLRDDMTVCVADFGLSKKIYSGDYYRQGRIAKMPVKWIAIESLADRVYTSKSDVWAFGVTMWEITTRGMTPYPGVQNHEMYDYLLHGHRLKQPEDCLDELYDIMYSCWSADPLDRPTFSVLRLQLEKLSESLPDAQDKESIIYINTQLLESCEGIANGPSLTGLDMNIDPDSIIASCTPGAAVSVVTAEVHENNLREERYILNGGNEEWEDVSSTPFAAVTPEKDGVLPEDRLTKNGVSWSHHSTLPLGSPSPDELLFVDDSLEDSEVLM

[2] = Drug uptake in Swiss outbred mouse brain assessed as time required to reach peak value at 3 mg/kg, iv measured after 60 mins by LC-MS/MS analysis; assay type: ADME, organism-based
[3] = Unbound brain-to-plasma concentration ratio in Swiss outbred mouse at 4.4 mg/kg, iv measured after 2 hrs; assay type: ADME, organism-based; settings: read-out: K(p,uu,brain)
[4] = molecular target: T1, Tyrosine-protein kinase Mer (Mus musculus); assay: Binding affinity to MERTK in cuprizone-challenged C57BL/6 mouse whole brain assessed as maximum binding at 18.1 nM by autoradiography; assay type: tissue-based; settings: tested as the 18F-labelled form
[5] = Drug uptake in heart of cuprizone-challenged C57BL/6 mouse at 4.4 mg/kg, iv by PET imaging; assay type: ADME, organism-based; settings: in vivo
[6] = Retention time of the compound by UV-Vis spectroscopy analysis; assay type: physicochemical
[7] = molecular target: T2, Tyrosine-protein kinase Mer (Mus musculus, UniProt Q60805); assay: Binding affinity to MERTK in cuprizone-challenged C57BL/6 mouse brain CC/HC region assessed as dissociation constant at 18.1 nM by autoradiography; assay type: tissue-based
T2 sequence (Q60805 whole entry): T1 sequence (whole entry)

[8] = Drug uptake in brain of cuprizone-challenged C57BL/6 mouse at 4.4 mg/kg, iv by PET imaging measured upto 2 mins; assay type: ADME, organism-based; settings: in vivo
[9] = molecular target: T2, Tyrosine-protein kinase Mer; assay: Binding affinity to MERTK in cuprizone-challenged C57BL/6 mouse whole brain assessed as dissociation constant at 18.1 nM by autoradiography; assay type: tissue-based
[10] = Drug uptake in liver of cuprizone-challenged C57BL/6 mouse at 4.4 mg/kg, iv by PET imaging; assay type: ADME, organism-based; settings: in vivo
[11] = Retention time of the compound by HPLC analysis; assay type: physicochemical

Structure (SMILES)	Bmax [1] [fmol/mg]	Tmax [2] [min]	Kp uu at 2 h [3]	Bmax [4] [fmol/mg]	Drug uptake [5]	Retention_time [6] [min]	Kd [7] [nM]	Drug uptake [8] [%]	Kd [9] [nM]	Drug uptake [10]	Retention_time [11] [min]
CCCCNc1ncc(C(=O)NC2CCN(CCCF)CC2)c(N[C@H]2CC[C@H](O)CC2)n1	896	15	> 1	422							
CCCCNc1ncc(C(=O)NC2CCN(CCF)CC2)c(N[C@H]2CC[C@H](O)CC2)n1		15									
CCCCNc1ncc(C(=O)NC2CCN(CCC[18F])CC2)c(N[C@H]2CC[C@H](O)CC2)n1					<= 0.24%	18.8	19.7	0.023	12.6	<= 0.24%	18.57
